# Values of other authors as cited in patent EP0398588A1, “Macrolide antibiotics” (ELI LILLY AND COMPANY, priority 1989, dated 1990).
# System: rats
# Conditions: rat, in vivo, po
smiles,measurement,value
O=C1C[C@@H]2OCC=C3CN4CC[C@]56c7ccccc7N1[C@H]5[C@H]2[C@H]3C[C@H]46 [strychnine],MLD,5 mg/kg
